Measured values taken from patent publication US11807625B2, “Capsid inhibitors for the prevention of HIV” (Gilead Sciences, Inc., priority 2019, dated 2023).
Like-named read-outs stand apart in the source and are kept apart here.

Experiment: PK of compound of Formula (Ia) after single subcutaneous dose of solution formulations in beagle dogs
Format: in vivo
Conditions: male, beagle, dog, plasma, sc, 12 mg/kg; for AUC(0-t): male beagle dogs, single SC 12 mg/kg, mean ± SD, n = 3
Description: Formulations containing the compound of Formula (Ia), or a pharmaceutically acceptable salt thereof, were prepared as solutions and optionally administered subcutaneously or intramuscularly to rats, rabbits, and/or dogs.
(§1) A solution of about 400 mg/mL of the compound of Formula (Ia) having 17.00 w/w % water, 36.40 w/w % PEG 300, 35.20 w/w % of a sodium salt of a compound of Formula (Ia), 5.00 w/w % ethanol, and 6.40 w/w % poloxamer 188 was prepared. The solution was administered subcutaneously to male beagle dogs at a dose level of about 12 mg/kg and male Wistar Han rats at a dose level of about 50 mg/kg. The pharmacokinetic profiles were determined, and the results for dogs are summarized in Table and Table, while the results for rats are summarized in Table and Table below.
as §1, with “500” for “400”, “14.06” for “17.00”, “30.12” for “36.40”
A solution of about 300 mg/mL of the compound of Formula (Ia) having 23.33 w/w % water, 48.99 w/w % PEG 300, 26.47 w/w % of a sodium salt of a compound of Formula (Ia), and 1.21 w/w % poloxamer 188 was prepared. The solution was administered subcutaneously to male beagle dogs at a dose level of about 6 mg/kg and male Wistar Han rats at a dose level of about 50 mg/kg. The pharmacokinetic profiles were determined, and the results for dogs are summarized in Table and Table, while the results for rats are summarized in Table and Table below.
as §1, with “18.80” for “17.00”, “40.25” for “36.40”, “34.38” for “35.20”, “1.57” for “6.40”
as §1, with “500” for “400”, “16.29” for “17.00”, “34.88” for “36.40”, “41.92” for “35.20”, “1.91” for “6.40”
as §1, with “20.90” for “17.00”, “44.72” for “36.40”, “and 34.38” for “35.20”, “(Ia)” for “(Ia), 5.00 w/w % ethanol, and 6.40 w/w % poloxamer 188”
A solution of about 400 mg/mL of the compound of Formula (Ia) having 19.90 w/w % water, 42.59 w/w % PEG 300, 34.38 w/w % of a sodium salt of a compound of Formula (Ia), and 3.13 w/w % poloxamer 188 was prepared. The solution was administered subcutaneously to male beagle dogs at a dose level of about 12 mg/kg and male Wistar Han rats at a dose level of about 50 mg/kg. […]

[1] = beagle dogs, SC 12 mg/kg, 500 mg/mL solution X (5.00% ethanol, 1.91% poloxamer 188), Mean n = 3
[2] = beagle dogs, SC 12 mg/kg, 500 mg/mL solution X (5.00% ethanol, 1.91% poloxamer 188), animals #1-#3

In the case of `CC(C)(C#Cc1ccc(-c2ccc(Cl)c3c(NS(C)(=O)=O)nn(CC(F)(F)F)c23)c([C@H](Cc2cc(F)cc(F)c2)NC(=O)Cn2nc(C(F)(F)F)c3c2C(F)(F)[C@@H]2C[C@H]32)n1)S(C)(=O)=O` [compound of Formula (Ia)], the concentration at 24 h [1] is reported as 39.7 nM, the concentration at 24 h [2] is reported as 32.8 nM and the concentration at 48 h [1] is reported as 44.7 nM. It also gave a concentration at 48 h [2] of 39.8 nM, a concentration at 72 h (beagle dogs, SC 12 mg/kg, 500 mg/mL solution X (5.00% ethanol, 1.91% poloxamer 188), 72.0 h, Mean n = 3) of 36.5 nM and a concentration at 96 h (beagle dogs, SC 12 mg/kg, 500 mg/mL solution X (5.00% ethanol, 1.91% poloxamer 188), 96.0 h, Mean n = 3) of 31.4 nM. For the same molecule, the concentration at 168 h (beagle dogs, SC 12 mg/kg, 500 mg/mL solution X (5.00% ethanol, 1.91% poloxamer 188), 168 h, Mean n = 3) was 39.2 nM, the concentration at 336 h (beagle dogs, SC 12 mg/kg, 500 mg/mL solution X (5.00% ethanol, 1.91% poloxamer 188), 336 h, Mean n = 3) was 50.3 nM and the concentration at 504 h (beagle dogs, SC 12 mg/kg, 500 mg/mL solution X (5.00% ethanol, 1.91% poloxamer 188), 504 h, Mean n = 3) was 114 nM. For the same molecule, the concentration at 672 h (beagle dogs, SC 12 mg/kg, 500 mg/mL solution X (5.00% ethanol, 1.91% poloxamer 188), 672 h, Mean n = 3) was 110 nM, the concentration at 840 h (beagle dogs, SC 12 mg/kg, 500 mg/mL solution X (5.00% ethanol, 1.91% poloxamer 188), 840 h, Mean n = 3) was 61.4 nM and the concentration at 1008 h (beagle dogs, SC 12 mg/kg, 500 mg/mL solution X (5.00% ethanol, 1.91% poloxamer 188), 1008 h, Mean n = 3) was 68.3 nM. The concentration at 1344 h (beagle dogs, SC 12 mg/kg, 500 mg/mL solution X (5.00% ethanol, 1.91% poloxamer 188), 1344 h, Mean n = 3) was 48.5 nM, the concentration at 1680 h (beagle dogs, SC 12 mg/kg, 500 mg/mL solution X (5.00% ethanol, 1.91% poloxamer 188), 1680 h, Mean n = 3) was 37.7 nM and the concentration at 2016 h (beagle dogs, SC 12 mg/kg, 500 mg/mL solution X (5.00% ethanol, 1.91% poloxamer 188), 2016 h, Mean n = 3) was 23.4 nM. The concentration at 2352 h (beagle dogs, SC 12 mg/kg, 500 mg/mL solution X (5.00% ethanol, 1.91% poloxamer 188), 2352 h, Mean n = 3) was 24.3 nM, the concentration at 2688 h (beagle dogs, SC 12 mg/kg, 500 mg/mL solution X (5.00% ethanol, 1.91% poloxamer 188), 2688 h, Mean n = 3) was 14.6 nM and the concentration at 3024 h (beagle dogs, SC 12 mg/kg, 500 mg/mL solution X (5.00% ethanol, 1.91% poloxamer 188), 3024 h, Mean n = 3) was 14.6 nM. For the same molecule, the concentration at 3360 h (beagle dogs, SC 12 mg/kg, 500 mg/mL solution X (5.00% ethanol, 1.91% poloxamer 188), 3360 h, Mean n = 3) was 9.6 nM, the concentration at 3696 h (beagle dogs, SC 12 mg/kg, 500 mg/mL solution X (5.00% ethanol, 1.91% poloxamer 188), 3696 h, Mean n = 3) was 8.6 nM and the concentration at 4032 h (beagle dogs, SC 12 mg/kg, 500 mg/mL solution X (5.00% ethanol, 1.91% poloxamer 188), 4032 h, Mean n = 3) was 8.3 nM. The concentration at 4368 h (beagle dogs, SC 12 mg/kg, 500 mg/mL solution X (5.00% ethanol, 1.91% poloxamer 188), 4368 h, Mean n = 3) was 6.4 nM, the AUC(0-t) (400 mg/mL solution AA (6.25% poloxamer 188), read-out: AUC0-24 h) was 1.57 ± 0.56 µM·h and the AUC(0-t) (400 mg/mL solution AA (6.25% poloxamer 188), read-out: AUC0-168 h) was 22.2 ± 7 µM·h. The AUC(0-t) (400 mg/mL solution AA (6.25% poloxamer 188), read-out: AUC0-336 h) was 46.3 ± 9.4 µM·h, the AUC(0-t) (400 mg/mL solution AA (6.25% poloxamer 188), read-out: AUC0-672 h) was 108 ± 26 µM·h and the AUC(0-t) (400 mg/mL solution AA (6.25% poloxamer 188), read-out: AUC0-1008 h) was 149 ± 31 µM·h. The AUC(0-t) (400 mg/mL solution AA (6.25% poloxamer 188), read-out: AUC0-1344 h) was 171 ± 33 µM·h, the AUC(0-t) (400 mg/mL solution AA (6.25% poloxamer 188), read-out: AUC0-2352 h) was 195 ± 35 µM·h and the AUC(0-t) (400 mg/mL solution AA (6.25% poloxamer 188), read-out: AUC0-3024 h) was 200 ± 35 µM·h. The AUC(0-t) (400 mg/mL solution AA (6.25% poloxamer 188), read-out: AUC0-3696 h) was 208 ± 47 µM·h, the AUC(0-t) (400 mg/mL solution Y (water, PEG 300), read-out: AUC0-24 h) was 0.996 ± 0.513 µM·h and the AUC(0-t) (400 mg/mL solution Y (water, PEG 300), read-out: AUC0-168 h) was 9.61 ± 2.6 µM·h. The AUC(0-t) (400 mg/mL solution Y (water, PEG 300), read-out: AUC0-336 h) was 27.4 ± 1.9 µM·h, the AUC(0-t) (400 mg/mL solution Y (water, PEG 300), read-out: AUC0-672 h) was 100 ± 7.2 µM·h and the AUC(0-t) (400 mg/mL solution Y (water, PEG 300), read-out: AUC0-1008 h) was 146 ± 11 µM·h. The AUC(0-t) (400 mg/mL solution Y (water, PEG 300), read-out: AUC0-1344 h) was 172 ± 16 µM·h, the AUC(0-t) (400 mg/mL solution Y (water, PEG 300), read-out: AUC0-2352 h) was 200 ± 19 µM·h and the AUC(0-t) (400 mg/mL solution Y (water, PEG 300), read-out: AUC0-3024 h) was 207 ± 19 µM·h. It also gave an AUC(0-t) (400 mg/mL solution Y (water, PEG 300), read-out: AUC0-3696 h) of 210 ± 18 µM·h, an AUC(0-t) (400 mg/mL solution Z (3.13% poloxamer 188), read-out: AUC0-24 h) of 1.02 ± 0.58 µM·h and an AUC(0-t) (400 mg/mL solution Z (3.13% poloxamer 188), read-out: AUC0-168 h) of 10.6 ± 4.9 µM·h. It also gave an AUC(0-t) (400 mg/mL solution Z (3.13% poloxamer 188), read-out: AUC0-336 h) of 30.1 ± 14.8 µM·h, an AUC(0-t) (400 mg/mL solution Z (3.13% poloxamer 188), read-out: AUC0-672 h) of 92.7 ± 31 µM·h and an AUC(0-t) (400 mg/mL solution Z (3.13% poloxamer 188), read-out: AUC0-1008 h) of 125 ± 31 µM·h. For the same molecule, the AUC(0-t) (400 mg/mL solution Z (3.13% poloxamer 188), read-out: AUC0-1344 h) was 147 ± 32 µM·h and the AUC(0-t) (400 mg/mL solution Z (3.13% poloxamer 188), read-out: AUC0-2352 h) was 170 ± 33 µM·h.
